Test results: patent US20190048052A1, “ANTI-MICROBIAL PEPTIDES AND COATINGS” (Board of Regents of the University of Nebraska, priority 2016, published 2019)
Values after ≈ are worked out from the molar mass of the structure shown. Where two headings read alike, the source gives them in different places. Non-standard residues stand in square brackets, D forms with d. Residues, ends and D or L forms follow the SMILES beside them.

Key:
E. coli K12 = type: cell-based, Escherichia coli
Method: (§1) The bacterial strains used here included Gram-positive bacteria Staphylococcus aureus USA300 LAC, Staphylococcus epidermidis 1457, Bacillus subtilis 168, and Gram-negative Escherichia coli K12. Clinical strains of S. aureus, including Mu50, UAMS-1 and Newman, were also evaluated.
(§2) The antimicrobial activity of peptides was evaluated using a standard broth microdilution protocol (Wang, G. (2008) J. Biol. Chem., 283:32637-32643). In brief, exponential phase bacteria at 10^6 CFU were incubated with serially diluted peptides overnight for ˜20 hours at 37° C. The plates were read on a ChroMate® 4300 Microplate Reader at 630 nm (GMI, Ramsey, Minn.). […] In addition, the effects of human serum (up to 10%), pH (6.8, 7.4 and 8.0) and 150 mM sodium chloride (NaCl) on MICs against S. aureus USA300 were also evaluated (Mishra et al. (2015) RSC Advances 5:59758-59769).

S. epidermidis 1457 = type: cell-based, Staphylococcus epidermidis
Method: as §1, §2

B. subtilis 168 = type: cell-based, Bacillus subtilis
Method: as §1, §2

S. aureus Mu50 = type: cell-based, Staphylococcus aureus
Method: as §1, §2

S. aureus Newman = type: cell-based, Staphylococcus aureus
Method: as §1, §2

S. aureus UAMS-1 = type: cell-based, Staphylococcus aureus
Method: as §1, §2

S. aureus USA300 [1] = type: cell-based, Staphylococcus aureus
Method: as §1, §2

S. aureus USA300 [2] = type: cell-based, Staphylococcus aureus; remark: listed apart in the source
Method: The minimal bactericidal concentration (MBC) was determined by plating 50 μl of the content in the clear wells of the above MIC assays. MBC was determined on the petri dishes without bacterial colony formation after overnight growth (Wang et al. (2012) Biochemistry 51:653-664).

[3] = system: Candida albicans ATCC 10231; type: cell-based; conditions: ATCC 10231, 48 h
Method: (§3) Fungal strains used in this study include Candida albicans ATCC 10231, C. glabrata ATCC 2001 and C. tropicalis ATCC 13803. The fungi were grown in Remel Dex broth (Thermo Fisher Scientific, KS). Antifungal assays were conducted essentially as described for antibacterial assays above, except for a higher starting density at an OD600 0.02 and a longer incubation time of ˜48 hours prior to microplate reading (Mishra et al. (2015) RSC Advances 5:59758-59769).

C. glabrata ATCC 2001 = type: cell-based, Candida glabrata; conditions: ATCC 2001, 48 h
Method: as §3

C. tropicalis ATCC 13803 = type: cell-based, Candida tropicalis; conditions: ATCC 13803, 48 h
Method: as §3

Hemolytic assay = type: cell-based; conditions: red blood cells, hemolysis
Method: Hemolytic analysis of selected peptides was performed using an established protocol (Mishra et al. (2015) RSC Advances 5:59758-59769). Briefly, human blood cells (UNMC Blood Bank) were washed three times with phosphate buffer saline (PBS) and diluted to a 2% solution. After peptide treatment, incubation at 37° C. for one hour, and centrifugation at 13,000 rpm, aliquots of the supernatant were transferred to a fresh 96-well microplate. To assess peptide cytotoxicity, the amount of hemoglobin released was measured at 545 nm. The percent lysis was calculated by assuming 100% release when human blood cells were treated with 1% TRITON™ X-100, and 0% release when incubated with PBS buffer. The hemolytic assays using chicken, bovine, and porcine blood cells (Lampire Biological Laboratories, Inc.) were performed in the same manner.

MTS cytotoxicity assay [4] = type: cell-based; conditions: human
Method: (§4) HeLa CCL-2 epithelial adenocarcinoma cells from American Type Culture Collection (ATCC) were maintained in DMEM high glucose media with 4 mM L-glutamine (NyClone) and 100 U/mL penicillin, 100 μg/mL streptomycin (pen/strep) (Life Technologies), and 10% (v/v) inactivated fetal bovine serum (FBS) (NyClone). Cells were grown in 5% CO2 at 37° C. and were detached from the culturing dish at 80% confluency using 0.025% trypsin-EDTA (NyClone) treatment. Peptide influence on the cell viability was estimated by using the MTS assay according to the manufacturer's protocol (MTS, CellTiter96® AQ One Solution Cell Proliferation Assay, Promega) with minor modifications and as described elsewhere (Mishra et al. (2015) RSC Advances 5:59758-59769). In short, cells were cultured in flat bottomed 96 well microtiter plates (Corning Life Science) at a seeding density of 20,000 cells/well. At confluence ˜100% achieved after 20-24 hours of cultivation, the cells were washed twice with 100 μL Dulbecco's Phosphate Buffered Saline (Life Technologies). Further, 90 μL of DMEM media with 10% FBS, pen/step was added before exposure to 10 μL of the peptide solution in the concentration range 12.5-100 μM. Plates were incubated at 37° C. After 1 hour, 10 μL MTS, CellTiter96® was added. Plates were further incubated for another 2 hours at 37° C. and finally, the absorbance was measured on ChroMate® reader (Awareness Technology) at 492 nm. Culture medium and 0.2% SDS were used as negative and positive controls, respectively.
Human skin HaCaT (immortalized keratinocyte from AddexBio, T0020001) and kidney HEK293 cells were also cultivated for cytotoxicity evaluation of the peptides in a similar manner.

MTS cytotoxicity assay [5] = type: cell-based; conditions: human, HeLa CCL-2 cells
Method: as §4

S. aureus USA300 [6] = test: Propidium iodide membrane permeation; type: cell-based, Staphylococcus aureus
Method: Fluorescence spectroscopy was also used to follow bacterial killing. In brief, a serially diluted 10× peptide (10 μL) was made in 96-well coming COSTAR microtiter plates. Propidium iodide (2 μL) was added at 50 μM to each well which was finally incubated with S. aureus USA300 bacteria (88 μL at a final OD600 ˜0.1) with continuous shaking at 100 rpm, 37° C. in a FLUOstar® Omega (BMG LABTECH Inc, NC) microplate reader. The plates were read every 5 minutes for a total duration of 2 hours with excitation and emission wavelengths at 584 nm and 620 nm respectively. Plots were made using averaged readings from duplicated experiments after subtraction of the media control.

S. aureus V8 protease = biological target: T1, S. aureus V8 protease (Staphylococcus aureus, UniProt P0C1U8); type: in vitro ADME; conditions: peptide:protease 40:1, 24 hours, 37° C.
T1 construct: purchased Sigma or Fisher
T1 sequence (P0C1U8 69-336): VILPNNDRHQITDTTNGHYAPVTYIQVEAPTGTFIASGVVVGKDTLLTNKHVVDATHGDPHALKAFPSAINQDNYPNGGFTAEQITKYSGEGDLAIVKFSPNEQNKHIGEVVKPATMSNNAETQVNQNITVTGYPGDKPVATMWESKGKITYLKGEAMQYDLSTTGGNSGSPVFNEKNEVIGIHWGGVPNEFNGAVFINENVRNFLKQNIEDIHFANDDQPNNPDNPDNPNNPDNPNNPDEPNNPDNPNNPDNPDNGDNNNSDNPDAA
Method: (§5) When degraded, no peptide band could be detected on a 5% stacking/18% resolving tricine gel after 2-4 hours incubation at 37° C. Briefly, a solution (100 μL) containing 250 μM peptide and 6.25 μM protease (Sigma or Fisher) in 10 mM PBS buffer (pH 8) was incubated at 37° C. (peptide/protease molar ratio, 40:1). Aliquots (10 μL) of the reaction solutions were taken at 0, 6, and 24 hours and immediately mixed with 10 μL of 2× SDS loading buffer followed by boiling for 5 minutes to stop the reaction. […] After electrophoresis, the gel was stained by Brilliant Blue R-250 (Fisher) and destained to view the peptide bands.

proteinase K = biological target: T2, proteinase K (Parengyodontium album, UniProt P06873); test: Peptide stability to proteases (SDS-PAGE); type: in vitro ADME, fungal; conditions: peptide:protease 40:1, 24 hours, 37° C.
T2 construct: purchased Sigma or Fisher
T2 sequence (P06873 106-384): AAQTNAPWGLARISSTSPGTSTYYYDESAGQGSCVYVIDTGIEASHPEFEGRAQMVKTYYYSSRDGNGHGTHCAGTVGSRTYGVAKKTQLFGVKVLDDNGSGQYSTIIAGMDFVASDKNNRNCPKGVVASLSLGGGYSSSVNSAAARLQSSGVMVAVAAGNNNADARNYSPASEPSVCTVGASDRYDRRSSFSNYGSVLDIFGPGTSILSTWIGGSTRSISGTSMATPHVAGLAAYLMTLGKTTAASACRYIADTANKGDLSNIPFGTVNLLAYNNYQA
Method: as §5

CC[C@H](C)[C@H](NC(=O)[C@H](CCCCN)NC(=O)[C@H](CCCCN)NC(=O)[C@H](CC(C)C)NC(=O)[C@H](Cc1c[nH]c2ccccc12)NC(=O)[C@H](Cc1c[nH]c2ccccc12)NC(=O)[C@@H](N)Cc1c[nH]c2ccccc12)C(=O)N[C@@H](Cc1c[nH]c2ccccc12)C(N)=O [TetraF2W-KK, WWWLKKIW] (H-WWWLKKIW-NH2; N-terminus and C-terminus assumed)
MIC E. coli K12 (E. coli K12; K12): 12.5 to 25 µM | MIC S. epidermidis 1457 (S. epidermidis 1457): 6.2 µM (≈ 7.72 µg/mL) | MIC B. subtilis 168 (B. subtilis 168): 6.2 µM (≈ 7.72 µg/mL) | Antimicrobial activity (MIC) Mu50 (S. aureus Mu50): 6.2 µM | Antimicrobial activity (MIC) Newman (S. aureus Newman): 6.2 µM | Antimicrobial activity (MIC) UAMS-1 (S. aureus UAMS-1): 6.2 µM | Antimicrobial activity (MIC) 150 mM NaCl (S. aureus USA300 [1]; USA300): 3.1 to 6.2 µM | Antimicrobial activity (MIC) USA300 (S. aureus USA300 [1]; USA300): 3.1 to 6.2 µM | MIC S. aureus USA300 (S. aureus USA300 [1]; USA300): 3.1 to 6.2 µM | Antimicrobial activity (MIC) pH 6.8 (S. aureus USA300 [1]; USA300, pH 6.8): 12.5 μM | Antimicrobial activity (MIC) Normal medium (pH 7.4) (S. aureus USA300 [1]; USA300, pH 7.4): 3.1-6.2 μM | Antimicrobial activity (MIC) pH 8 (S. aureus USA300 [1]; USA300, pH 8): 3.1 μM | MBC S. aureus USA300 (S. aureus USA300 [2]): > 25 µM | MBC S. aureus USA300 (S. aureus USA300 [2]; USA300): >25 µM | MIC Candida albicans [3]: 6.2 µM (≈ 7.72 µg/mL) | MIC Candida glabrata (C. glabrata ATCC 2001): 6.2 to 12.5 µM | MIC Candida tropicalis (C. tropicalis ATCC 13803): 1.6 µM (≈ 1.99 µg/mL) | CC50 at 1 hour (Hemolytic assay; chicken, read-out: LC50 Chicken RBCs): 50 µM | CC50 at 1 hour (Hemolytic assay; human, read-out: LC50 Human RBCs): 40 µM | CC50 at 1 hour (Hemolytic assay; pig, read-out: LC50 Porcine RBCs): 55 µM | CC50 at 1 hour (MTS cytotoxicity assay [4]; HEK293 cells): 50 µM | CC50 at 1 hour (MTS cytotoxicity assay [4]; HaCaT cells): 50 µM | CC50 at 1 hour (MTS cytotoxicity assay [5]): 70 µM | propidium iodide fluorescence change after treatment (S. aureus USA300 [6]): least potent

CC[C@@H](C)[C@@H](NC(=O)[C@@H](CCCCN)NC(=O)[C@@H](CCCNC(=N)N)NC(=O)[C@@H](CC(C)C)NC(=O)[C@@H](Cc1c[nH]c2ccccc12)NC(=O)[C@@H](Cc1c[nH]c2ccccc12)NC(=O)[C@H](N)Cc1c[nH]c2ccccc12)C(=O)N[C@H](Cc1c[nH]c2ccccc12)C(N)=O [TetraF2W-RK-d, wwwlrkiw] (H-[dW][dW][dW][dL][dR][dK][dI][dW]-NH2; N-terminus and C-terminus assumed)
MIC E. coli K12 (E. coli K12): 6.2 µM (≈ 7.89 µg/mL) | MIC E. coli K12 (E. coli K12; K12): 6.2 µM (≈ 7.89 µg/mL) | MIC S. epidermidis 1457 (S. epidermidis 1457): 6.2 µM (≈ 7.89 µg/mL) | MIC B. subtilis 168 (B. subtilis 168): 3.1 µM (≈ 3.94 µg/mL) | MIC S. aureus USA300 (S. aureus USA300 [1]; USA300): 3.1 µM (≈ 3.94 µg/mL) | MBC S. aureus USA300 (S. aureus USA300 [2]; USA300): 12.5 µM (≈ 15.9 µg/mL) | stability to S. aureus V8 protease (S. aureus V8 protease): remained stable | stability to fungal proteinase K (proteinase K): remained stable
